Results: doi:10.64898/2025.12.04.692444v1, “Calcium Dependent Protein Kinase 3 is not essential for the asexual replication of Plasmodium falciparum” (biorxiv, 2025)

How the values were obtained:
[1] = biological target: T1, PfCDPK3 (full-length recombinant CDPK3) (Plasmodium falciparum, UniProt Q9NJU9); assay: ADP-Glo luminescence kinase assay; format: biochemical; settings: MBP as exogenous substrate; 100 µM ATP; 5 mM CaCl2; 20 mM MgCl2; 40 mM Tris-Cl pH 7.5; 30 °C, 1 h
T1 construct: some truncated fragments
T1 sequence (Q9NJU9 1-562): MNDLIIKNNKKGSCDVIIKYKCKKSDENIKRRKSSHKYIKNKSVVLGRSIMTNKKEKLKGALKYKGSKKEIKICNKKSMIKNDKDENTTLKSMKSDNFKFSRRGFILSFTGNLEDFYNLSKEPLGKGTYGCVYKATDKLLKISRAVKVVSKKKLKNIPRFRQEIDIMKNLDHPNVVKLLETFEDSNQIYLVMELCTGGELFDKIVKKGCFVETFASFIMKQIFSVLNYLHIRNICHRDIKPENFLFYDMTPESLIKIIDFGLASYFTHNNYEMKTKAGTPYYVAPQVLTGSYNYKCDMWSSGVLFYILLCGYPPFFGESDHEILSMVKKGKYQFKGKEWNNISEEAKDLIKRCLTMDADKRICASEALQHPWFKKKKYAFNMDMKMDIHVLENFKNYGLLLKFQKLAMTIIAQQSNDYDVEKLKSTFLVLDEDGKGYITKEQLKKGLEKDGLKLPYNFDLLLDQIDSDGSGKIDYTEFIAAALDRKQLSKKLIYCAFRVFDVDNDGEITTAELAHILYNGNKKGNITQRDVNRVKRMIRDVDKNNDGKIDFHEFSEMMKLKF

[2] = biological target: T1, PfCDPK3 (full-length recombinant CDPK3); assay: semi-synthetic epitope tagging: thiophosphorylation, PNBM alkylation, anti-thiophosphate ester Western blot; format: biochemical; settings: GST as exogenous substrate; 100 µM ATPγS; 5 mM CaCl2; 50 mM MgCl2; 50 mM Tris; 30 °C, 2 h

SMILES: Nc1ncnc2c1ncn2[C@@H]1O[C@H](COP(=O)(O)OP(=O)(O)OP(=O)(O)O)[C@@H](O)[C@H]1O [ATP]
- ADP-Glo luminescence kinase assay [1]: conversion of ATP to ADP by the recombinant CDPK3, was higher in the presence of calcium

SMILES: Nc1ncnc2c1ncn2[C@@H]1O[C@H](COP(=O)(O)OP(=O)(O)OP(O)(O)=S)[C@@H](O)[C@H]1O [ATPγS]
- semi-synthetic epitope tagging: thiophosphorylation, PNBM alkylation, anti-thiop [2]: ATPγS, a ATP analog, containing terminal thiophosphate group was used as the source
